Experimental data taken from patent publication US20240383852A1, “ANTI-VIRAL COMPOUNDS” (INFEX Therapeutics Limited, priority 2021, published 2024).
Where a name gives a salt, the structure may show the parent alone. Read-outs that look alike come from different tables or passages of the source.

Assays:
[1] = test system: human Hep G2 cells (ATCC HB-8065); assay: Cytotoxicity in Hep G2 cells (CellTiter-Glo); format: cell-based
SARS-CoV-2 PLpro = target: T1, SARS-CoV-2 PLpro (Severe acute respiratory syndrome coronavirus 2, UniProt P0DTD1); assay: biochemical
T1 construct: containing 60 nM papain-like protease

[2] = Hep G2 cells, 100 μM test article, 24-hour exposure
[3] = 60 nM papain-like protease, 50 μM Z-RLRGG-AMC, pH 7.5, 37° C., read-out: SARS-CoV-2 PLpro IC50

| Structure (SMILES) | % Cell Viability [1, 2] [%] | IC50 (SARS-CoV-2 PLpro; [3]) [µM] | % Cell Viability ([1]; human, 24 h, 100 μM) [%] | IC50 (SARS-CoV-2 PLpro) [µM] |
| --- | --- | --- | --- | --- |
| COc1cc(-c2cn(C)nc2C)cc([C@@H](C)NC(=O)c2cc(N3CCNC4(CC4)C3)ccc2C)c1 [Example 267, 5-(4,7-Diazaspiro[2.5]octan-7-yl)-N-[(1R)-1-[3-(1,3-dimethylpyrazol-4-yl)-5-methoxy-phenyl]ethyl]-2-methyl-benzamide] | 81.0 | < 2 | – | – |
| COc1cc(-c2cn(C)nc2C)cc([C@@H](C)NC(=O)c2cc(N3CC4CNCC4C3)ccc2C)c1 (stereo partly drawn) [Example 268, 5-(2,3,3a,4,6,6a-Hexahydro-1H-pyrrolo[3,4-c]pyrrol-5-yl)-N-[(1R)-1-[3-(1,3-dimethylpyrazol-4-yl)-5-methoxy-phenyl]ethyl]-2-methyl-benzamide] | 75.0 | < 2 | – | – |
| COc1cc(-c2cn(C)nc2C)cc([C@@H](C)NC(=O)c2cc(N3C[C@H]4CC[C@@H](C3)N4)ccc2C)c1 [Example 270, 5-[(1S,5R)-3,8-Diazabicyclo[3.2.1]octan-3-yl]-N-[(1R)-1-[3-(1,3-dimethylpyrazol-4-yl)-5-methoxy-phenyl]ethyl]-2-methyl-benzamide] | – | – | 22.6 | < 2 |
| COc1ccc([C@@H](C)NC(=O)c2cc(N3CC4(CNC4)C3)ccc2C)cc1-c1cnn(C)c1 [Example 271, 5-(2,6-Diazaspiro[3.3]heptan-2-yl)-N-[(1R)-1-[4-methoxy-3-(1-methylpyrazol-4-yl)phenyl]ethyl]-2-methyl-benzamide] | 95.2 | < 5 | – | – |
| COc1ccc([C@@H](C)NC(=O)c2cc(N3CCN(CCO)CC3)ccc2C)cc1-c1cnn(C)c1 [Example 273, 5-[4-(2-Hydroxyethyl)piperazin-1-yl]-N-[(1R)-1-[4-methoxy-3-(1-methylpyrazol-4-yl)phenyl]ethyl]-2-methyl-benzamide] | 92.6 | < 5 | – | – |
| COc1cc(-c2cnn(C)c2)cc([C@@H](C)NC(=O)c2cc(N3C[C@H]4CC[C@@H](C3)N4CC3CC3)ccc2C)c1 [Example 274, 5-[(1R,5S)-8-(Cyclopropylmethyl)-3,8-diazabicyclo[3.2.1]octan-3-yl]-N-[(1R)-1-[3-methoxy-5-(1-methylpyrazol-4-yl)phenyl]ethyl]-2-methyl-benzamide] | – | – | 38.7 | < 2 |
| Cc1ccc(N2CCN(C)CC2)cc1C(=O)N[C@H](C)c1cc(O)cc(-c2cnn(C)c2)c1 [Example 275, N-[(1R)-1-[3-Hydroxy-5-(1-methylpyrazol-4-yl)phenyl]ethyl]-2-methyl-5-(4-methylpiperazin-1-yl)benzamide] | 80.7 | < 2 | – | – |
| Cc1ccc(N2CCN(C)CC2)cc1C(=O)N[C@H](C)c1ccc(O)c(-c2cnn(C)c2)c1 [Example 276, N-[(1R)-1-[4-Hydroxy-3-(1-methylpyrazol-4-yl)phenyl]ethyl]-2-methyl-5-(4-methylpiperazin-1-yl)benzamide] | 81.6 | < 2 | – | – |
| Cc1ccc(N2CCN(C)CC2)cc1C(=O)N[C@H](C)c1ccc(OCCO)c(-c2cnn(C)c2)c1 [Example 282, N-[(1R)-1-[4-(2-Hydroxyethoxy)-3-(1-methylpyrazol-4-yl)phenyl]ethyl]-2-methyl-5-(4-methylpiperazin-1-yl)benzamide] | 100.0 | < 2 | – | – |
| COc1ccc([C@@H](C)NC(=O)c2cc(N3CCN(C)CC3)ccc2C)cc1-c1cnn(CCO)c1 [Example 284, N-[(1R)-1-[3-[1-(2-Hydroxyethyl)pyrazol-4-yl]-4-methoxy-phenyl]ethyl]-2-methyl-5-(4-methylpiperazin-1-yl)benzamide] | 101.3 | < 2 | – | – |
| COc1ccc([C@@H](C)NC(=O)c2cc(N3CCN(C)CC3)ccc2C)cc1-c1csc(C(=O)N(C)C)c1 [Example 285, 4-[2-Methoxy-5-[(1R)-1-[[2-methyl-5-(4-methylpiperazin-1-yl)benzoyl]amino]ethyl]phenyl]-N,N-dimethyl-thiophene-2-carboxamide] | 72.2 | < 2 | – | – |
| COc1ccc([C@@H](C)NC(=O)c2cc(N3C[C@H]4C[C@@H]3CN4C)ccc2C)cc1-c1csc(C(=O)N(C)C)c1 [Example 286, 4-[2-Methoxy-5-[(1R)-1-[[2-methyl-5-[(1R,4R)-5-methyl-2,5-diazabicyclo[2.2.1]heptan-2-yl]benzoyl]amino]ethyl]phenyl]-N,N-dimethyl-thiophene-2-carboxamide] | 50.3 | < 2 | – | – |
| COc1ccc([C@@H](C)NC(=O)c2cc(N3C[C@H]4C[C@@H]3CN4C)ccc2C)cc1-c1csc(C(=O)NC2CC2)c1 [Example 287, N-Cyclopropyl-4-[2-methoxy-5-[(1R)-1-[[2-methyl-5-[(1R,4R)-5-methyl-2,5-diazabicyclo[2.2.1]heptan-2-yl]benzoyl]amino]ethyl]phenyl]thiophene-2-carboxamide] | 43.4 | < 2 | – | – |
| CNC(=O)c1cc(-c2cc([C@@H](C)NC(=O)c3cc(N4CCN(C)CC4)ccc3C)ccc2OC)cs1 [Example 288, 4-[2-Methoxy-5-[(1R)-1-[[2-methyl-5-(4-methylpiperazin-1-yl)benzoyl]amino]ethyl]phenyl]-N-methyl-thiophene-2-carboxamide] | 47.2 | < 2 | – | – |
| COc1cc(-c2cc(C(=O)N(C)C)n(C)c2)cc([C@@H](C)NC(=O)c2cc(N3C[C@H]4C[C@@H]3CN4C)ccc2C)c1 [Example 290, 4-[3-Methoxy-5-[(1R)-1-[[2-methyl-5-[(1R,4R)-5-methyl-2,5-diazabicyclo[2.2.1]heptan-2-yl]benzoyl]amino]ethyl]phenyl]-N,N,1-trimethyl-pyrrole-2-carboxamide] | 72.9 | < 2 | – | – |
| COc1ccc([C@@H](C)NC(=O)c2cc(N3CCN(C)CC3)ccc2C)cc1O [Example 291, N-[(1R)-1-(3-Hydroxy-4-methoxy-phenyl)ethyl]-2-methyl-5-(4-methylpiperazin-1-yl)benzamide] | 97.4 | < 5 | – | – |
| COc1ccc([C@@H](C)NC(=O)c2cc(N3CCN(C)CC3)ccc2C)cc1OCCN1CCOCC1 [Example 292, N-[(1R)-1-[4-Methoxy-3-(2-morpholinoethoxy)phenyl]ethyl]-2-methyl-5-(4-methylpiperazin-1-yl)benzamide] | 88.9 | < 2 | – | – |
| COc1ccc([C@@H](C)NC(=O)c2cc(N3CCN(C)CC3)ccc2C)cc1OCCO [Example 294, N-[(1R)-1-[3-(2-Hydroxyethoxy)-4-methoxy-phenyl]ethyl]-2-methyl-5-(4-methylpiperazin-1-yl)benzamide] | 120.9 | < 5 | – | – |
| COc1ccc([C@@H](C)NC(=O)c2cc(N3CCN(C)CC3)ccc2C)cc1OCCN [Example 295, N-[(1R)-1-[3-(2-Aminoethoxy)-4-methoxy-phenyl]ethyl]-2-methyl-5-(4-methylpiperazin-1-yl)benzamide Dihydrochloride Salt] | 107.9 | < 10 | – | – |
| COc1cc([C@@H](C)NC(=O)c2cc(N3C[C@H]4C[C@@H]3CN4C)ccc2C)ccc1OCC1CC1 [Example 297, N-[(1R)-1-[4-(Cyclopropylmethoxy)-3-methoxy-phenyl]ethyl]-2-methyl-5-[(1R,4R)-5-methyl-2,5-diazabicyclo[2.2.1]heptan-2-yl]benzamide] | 61.1 | < 2 | – | – |
| COc1cc([C@@H](C)NC(=O)c2cc(N3C[C@H]4CC[C@@H](C3)N4)ccc2C)ccc1OCC1CC1 [Example 298, N-[(1R)-1-[4-(Cyclopropylmethoxy)-3-methoxy-phenyl]ethyl]-5-[(1R,5S)-3,8-diazabicyclo[3.2.1]octan-3-yl]-2-methyl-benzamide] | – | – | 43.9 | < 2 |
| COc1ccc([C@@H](C)NC(=O)c2cc(C3CCN(C)CC3)ccc2C)cc1Br [Example 299, N-[(1R)-1-(3-Bromo-4-methoxy-phenyl)ethyl]-2-methyl-5-(1-methyl-4-piperidyl)benzamide] | 76.2 | < 2 | – | – |
| COc1cc(-c2cn(C)nc2C)cc([C@@H](C)NC(=O)c2cc(C3CCN(C)CC3)ccc2C)c1 [Example 301, N-[(1R)-1-[3-(1,3-Dimethylpyrazol-4-yl)-5-methoxy-phenyl]ethyl]-2-methyl-5-(1-methyl-4-piperidyl)benzamide] | 77.5 | < 2 | – | – |
| COc1cc(-c2cnn(C)c2)cc([C@@H](C)NC(=O)c2cc(C3CCN(C)CC3)ccc2C)c1 [Example 302, N-[(1R)-1-[3-Methoxy-5-(1-methylpyrazol-4-yl)phenyl]ethyl]-2-methyl-5-(1-methyl-4-piperidyl)benzamide] | 67.1 | < 2 | – | – |
| COc1cc(-c2cnn(C)c2)cc([C@@H](C)NC(=O)c2cc(C3CCNCC3)ccc2C)c1 [Example 303, N-[(1R)-1-[3-Methoxy-5-(1-methylpyrazol-4-yl)phenyl]ethyl]-2-methyl-5-(4-piperidyl)benzamide] | 73.2 | < 2 | – | – |
| Cc1ccc(N2CCN(C)CC2)cc1C(=O)N[C@H](C)c1cccc(C(=O)NC[C@@H](O)CO)c1 [Example 308, N-[(1R)-1-[3-[[(2R)-2,3-Dihydroxypropyl]carbamoyl]phenyl]ethyl]-2-methyl-5-(4-methylpiperazin-1-yl)benzamide hydrochloride salt] | 126.8 | < 10 | – | – |
| Cc1ccc(N2CCN(C)CC2)cc1C(=O)N[C@H](C)c1cccc(C(=O)NC[C@H](O)CO)c1 [Example 309, N-[(1R)-1-[3-[[(2S)-2,3-Dihydroxypropyl]carbamoyl]phenyl]ethyl]-2-methyl-5-(4-methylpiperazin-1-yl)benzamide] | 118.2 | < 5 | – | – |
| Cc1ccc(N2CCN(C)CC2)cc1C(=O)N[C@H](C)c1cccc(C(=O)NCC(N)=O)c1 [Example 310, N-[(1R)-1-[3-[(2-Amino-2-oxo-ethyl)carbamoyl]phenyl]ethyl]-2-methyl-5-(4-methylpiperazin-1-yl)benzamide hydrochloride salt] | 124.4 | < 5 | – | – |
